Assay results taken from ChEMBL document CHEMBL3390845, “Development of second generation amidinohydrazones, thio- and semicarbazones as Trypanosoma cruzi-inhibitors bearing benzofuroxan and benzimidazole 1,3-dioxide core scaffolds” (Medchemcomm, 2010).

How the values were obtained:
Trypanosoma cruzi = experiment: Antitrypanosomal activity against epimastigotes of Trypanosoma cruzi Tulahuen 2 assessed as parasite growth inhibition after 5 days; assay type: functional; conditions: Tulahuen 2, 120 h, read-out: ID50 (the source's name)
[1] = Hemolytic activity in human RBC assessed as hemoglobin release after 24 hrs by spectrophotometry; assay type: ADME, cell-based, Erythrocyte; conditions: for HC50 at 24 h: human red blood cells (RBC), read-out: ID50; for ID50: erythrocyte, 24 h
[2] = molecular target: Cruzipain (Trypanosoma cruzi) (UniProt P25779); experiment: Inhibition of Trypanosoma cruzi Cruzipain using Z-Phe-Arg-AMC as substrate at 100 uM at pH 7.3 measured for 10 mins by spectrofluorimetric analysis relative to control
Chain of Cruzipain (Trypanosoma cruzi) (P25779 123-467 limits assumed): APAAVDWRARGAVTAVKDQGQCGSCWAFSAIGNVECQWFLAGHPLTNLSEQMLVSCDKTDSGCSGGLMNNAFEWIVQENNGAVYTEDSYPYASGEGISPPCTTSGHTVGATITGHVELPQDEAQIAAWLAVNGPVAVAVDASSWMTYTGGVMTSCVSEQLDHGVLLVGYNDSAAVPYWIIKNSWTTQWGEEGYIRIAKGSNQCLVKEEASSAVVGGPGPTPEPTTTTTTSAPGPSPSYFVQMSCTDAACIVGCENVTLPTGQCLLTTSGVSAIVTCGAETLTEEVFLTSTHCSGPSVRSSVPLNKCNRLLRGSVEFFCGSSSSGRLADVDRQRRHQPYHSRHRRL

[3] = molecular target: Cruzipain (Trypanosoma cruzi) (UniProt P25779); experiment: Inhibition of Trypanosoma cruzi Cruzipain using Z-Phe-Arg-AMC as substrate measured for 10 mins by spectrofluorimetric analysis relative to control
[4] = Cytotoxicity in mouse J774 cells assessed as cell viability after 48 hrs by MTT assay; assay type: cell-based; conditions: read-out: ID50
[5] = Selectivity index, ratio of ID50 for human RBC to ID50 for epimastigotes of Trypanosoma cruzi Tulahuen 2
[6] = molecular target: Cruzipain (Trypanosoma cruzi) (UniProt P25779); experiment: Inhibition of Trypanosoma cruzi Cruzipain using Z-Phe-Arg-AMC as substrate at 100 uM at pH 5.3 measured for 10 mins by spectrofluorimetric analysis relative to control
[7] = Selectivity index, ratio of ID50 for mouse J774 cells to ID50 for epimastigotes of Trypanosoma cruzi Tulahuen 2; assay type: toxicity, cell-based; conditions: read-out: Selectivity Index
[8] = molecular target: Cruzipain (Trypanosoma cruzi) (UniProt P25779); experiment: Inhibition of Trypanosoma cruzi Cruzipain using Z-Phe-Arg-AMC as substrate at 100 uM at pH 7.3 measured for 10 mins by spectrofluorimetric analysis relative to control in presence of Triton X-100

Compound | IC50 (Trypanosoma cruzi) [µM] | HC50 at 24 h [1] [µM] | inhibition [2] [%] | ID50 [3] [µM] | CC50 at 48 h [4] [µM] | Selectivity Index [5] | inhibition [6] [%] | ID50 [1] | selectivity ratio [7] | inhibition [8] [%]
CC(=O)c1ccccc1OCc1ccc2no[n+]([O-])c2c1 | 7 | > 200 | 12 | > 100 |  |  |  |  |  | 
C=CCNC(=S)N/N=C\c1ccccc1OCc1ccc2no[n+]([O-])c2c1 | 23 | 139 | 11 | > 100 | 138 |  |  |  |  | 
CC1(C)[N+]([O-])=c2ccc(COc3cccc(/C=N/NC(N)=S)c3)cc2=[N+]1[O-] | 24 | 141 | 95 | 64 |  |  |  |  |  | 
CC(=O)c1ccccc1OCc1ccc2c(c1)=[N+]([O-])C(C)(C)[N+]=2[O-] | > 25 | < 50 | 0 | > 100 |  |  |  |  |  | 
CC1(C)[N+]([O-])=c2ccc(COc3ccccc3/C=N\NC(=N)N)cc2=[N+]1[O-] | > 25 | 114 | 2.5 | > 100 |  |  |  |  |  | 
C[C@@H]1[C@H](O)[C@@H](C)/C=C/C=C/C=C/C=C/C=C/C=C/C=C/[C@H](O[C@@H]2O[C@H](C)[C@@H](O)[C@H](N)[C@@H]2O)C[C@@H]2O[C@](O)(C[C@@H](O)C[C@@H](O)[C@H](O)CC[C@@H](O)C[C@@H](O)CC(=O)O[C@H]1C)C[C@H](O)[C@H]2C(=O)O [AMPHOTERICIN B] |  | 1.5 |  |  |  | 10 |  |  |  | 
CC1(C)[N+]([O-])=c2ccc(COc3ccccc3/C=N\NC(N)=S)cc2=[N+]1[O-] | 14 | > 200 | 35 | > 100 |  |  |  |  |  | 
N=C(N)N/N=C\c1ccccc1OCc1ccc2no[n+]([O-])c2c1 | > 25 | 58 | 39 | > 100 | < 100 |  |  |  |  | 
CC1(C)[N+]([O-])=c2ccc(COc3cccc(C=O)c3)cc2=[N+]1[O-] | > 25 | < 50 | 45 | 100 |  |  |  |  |  | 
CC1(C)[N+]([O-])=c2ccc(COc3ccc(/C=N/NC(=S)Nc4ccccc4)cc3)cc2=[N+]1[O-] | > 25 | < 50 | 72 | 85 |  |  |  |  |  | 
N=C(N)N/N=C/c1cccc(OCc2ccc3no[n+]([O-])c3c2)c1 | > 25 | > 100 | 42 | 100 |  |  | 28 |  |  | 
C=CCNC(=S)N/N=C/c1ccc2c(c1)=[N+]([O-])C(C)(C)[N+]=2[O-] | 7.2 |  |  |  |  |  |  |  |  | 
[O-][n+]1onc2ccc(COc3ccc(/C=N/NC(=S)Nc4ccccc4)cc3)cc21 | 7 |  | 95 | 75 |  |  |  | ND(Insoluble) |  | 
CC1(C)[N+]([O-])=c2ccc(COc3ccccc3/C=N\NC(N)=O)cc2=[N+]1[O-] | 4.7 | 50 | 0 | > 100 |  |  |  |  |  | 
[O-][n+]1onc2ccc(/C=N/NC(=S)Nc3ccccc3)cc21 | 8.3 |  |  | 78 |  |  |  |  |  | 
O=Cc1ccccc1OCc1ccc2no[n+]([O-])c2c1 | 6.3 | > 100 | 0 | > 100 | 78 | > 15.9 |  |  | 12.4 | 
CC1CS(=O)(=O)CCN1/N=C/c1ccc([N+](=O)[O-])o1 (stereo not given) [NIFURTIMOX] |  | > 100 |  |  |  | 13 |  |  |  | 
NC(=O)N/N=C\c1ccccc1OCc1ccc2no[n+]([O-])c2c1 | > 25 | > 100 | 7 | > 100 | < 100 |  |  |  |  | 
CC1(C)[N+]([O-])=c2ccc(COc3ccc(C=O)cc3)cc2=[N+]1[O-] | 17 | 65 | 35.5 | > 100 | < 100 |  |  |  |  | 

Compound | IC50 (Trypanosoma cruzi) [µM] | HC50 at 24 h [1] [µM] | inhibition [2] [%] | ID50 [3] [µM] | CC50 at 48 h [4] [µM] | Selectivity Index [5] | inhibition [6] [%] | ID50 [1] | selectivity ratio [7] | inhibition [8] [%]
CC1(C)[N+]([O-])=c2ccc(COc3ccc(/C=N/NC(N)=O)cc3)cc2=[N+]1[O-] | > 25 | > 200 | 0 | > 100 |  |  |  |  |  | 
CC1(C)[N+]([O-])=c2ccc(COc3ccc(/C=N/NC(N)=S)cc3)cc2=[N+]1[O-] | 17 |  | 13.7 | > 100 |  |  |  | ND(Insoluble) |  | 
C=CCNC(=S)N/N=C/c1cccc(OCc2ccc3no[n+]([O-])c3c2)c1 | 13 |  | 100 | 55 |  |  | 79 | ND(Insoluble) |  | 90
NC(=S)N/N=C\c1ccccc1OCc1ccc2no[n+]([O-])c2c1 | > 25 | 189 | 49 | 100 | < 100 |  |  |  |  | 
C=CCNC(=S)N/N=C/c1ccc(OCc2ccc3c(c2)=[N+]([O-])C(C)(C)[N+]=3[O-])cc1 | 23 | > 100 | 51 | 100 |  |  |  |  |  | 
O=Cc1ccc(OCc2ccc3no[n+]([O-])c3c2)cc1 |  | < 50 | 6.3 | > 100 |  |  |  |  |  | 
[O-][n+]1onc2ccc(/C=N/N=C/c3cc(Br)ccc3O)cc21 | 25 |  |  | 73 |  |  |  |  |  | 
CC1(C)[N+]([O-])=c2ccc(COc3ccccc3/C=N\NC(=S)Nc3ccccc3)cc2=[N+]1[O-] | 7.7 | 66 | 0 | > 100 | < 100 |  |  |  |  | 
[O-][n+]1onc2ccc(/C=N/N=C/c3ccccc3O)cc21 | > 25 |  |  | 68 |  |  |  |  |  | 
[O-][n+]1onc2ccc(COc3ccccc3/C=N\NC(=S)Nc3ccccc3)cc21 | 3.6 | > 200 | 0 | > 100 | > 400 | > 55.6 |  |  | > 111 | 
NC(=S)N/N=C/c1ccc(OCc2ccc3no[n+]([O-])c3c2)cc1 |  | > 200 |  | 43 |  | > 13.3 |  |  | 26.7 | 
N=C(N)N/N=C/c1ccc(OCc2ccc3no[n+]([O-])c3c2)cc1 |  | > 200 |  | 32 |  |  |  |  |  | 
NC(=S)N/N=C/c1cccc(OCc2ccc3no[n+]([O-])c3c2)c1 | 15 |  | 80 | 78 |  |  |  | ND(Insoluble) |  | 
O=Cc1cccc(OCc2ccc3no[n+]([O-])c3c2)c1 | 28 | 50 | 43 | 100 |  |  |  |  |  | 
NC(=O)N/N=C/c1ccc(OCc2ccc3no[n+]([O-])c3c2)cc1 |  | > 200 |  | > 100 |  |  |  |  |  | 
C=CCNC(=S)N/N=C\c1ccccc1OCc1ccc2c(c1)=[N+]([O-])C(C)(C)[N+]=2[O-] | 2.7 |  | 6.6 | > 100 |  |  |  | ND(Insoluble) |  | 
C=CCNC(=S)N/N=C/c1ccc(OCc2ccc3no[n+]([O-])c3c2)cc1 | > 25 |  | 38 | > 100 |  |  |  | ND(Insoluble) |  | 
C/C(=N/NC(=N)N)c1ccccc1OCc1ccc2no[n+]([O-])c2c1 | 16.6 | > 200 | 21 | > 100 |  |  |  |  |  | 
